Test results from patent EP0312291A2, “Di-or tripeptide renin inhibitors containing lactam conformational restriction in ACHPA” (Merck & Co., Inc., priority 1987, dated 1989).

These compounds were tested against T1, human plasma renin (Homo sapiens, UniProt P00797) (assay: Inhibition of human plasma renin, in vitro method of Boger et al., J. Med. Chem. (1985) 28, 1779).
T1 construct: from tissue; host or cells: human plasma
T1 sequence (P00797 67-406): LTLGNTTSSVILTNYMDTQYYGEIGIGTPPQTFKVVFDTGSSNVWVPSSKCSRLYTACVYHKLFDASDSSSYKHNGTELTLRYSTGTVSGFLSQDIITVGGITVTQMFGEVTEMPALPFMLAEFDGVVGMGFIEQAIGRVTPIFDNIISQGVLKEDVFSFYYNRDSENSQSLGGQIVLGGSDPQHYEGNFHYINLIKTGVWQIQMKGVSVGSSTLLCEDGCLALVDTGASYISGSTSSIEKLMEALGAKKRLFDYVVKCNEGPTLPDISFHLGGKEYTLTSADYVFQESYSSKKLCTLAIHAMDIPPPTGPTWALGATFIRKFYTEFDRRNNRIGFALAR
Format: biochemical
Procedure: Inhibition of human plasma renin was assayed using the in vitro method described by Boger, et. al., J. Med. Chem. (1985) 28, 1779.

**Q.** How did the IC50 turn out when `CN1CCCC[C@@H]([C@H](O)[C@H](CC2CCCCC2)NC(=O)[C@H](Cc2c[nH]cn2)NC(=O)[C@H](Cc2ccccc2)NC(=O)OC(C)(C)C)C1=O` [Example 3C, Boc-Phe-His-(ACHP)-1-Methylcaprolactam] was run?
**A.** The IC50 was 203 nM.

**Q.** `CN1CCC[C@@H]([C@H](O)[C@H](CC2CCCCC2)NC(=O)[C@H](Cc2c[nH]cn2)NC(=O)[C@H](Cc2ccccc2)NC(=O)OC(C)(C)C)C1=O` [Example 3A, Boc-Phe-His-(ACHP)-1-Methyl-2-Piperidinone] was tested. Which IC50 did it give?
**A.** Its IC50 is 47 nM.

**Q.** Which IC50 does the source give for “Boc-Phe-His-(ACHP)-4-Methyl-3-Morpholinone [Example 3B]” here?
**A.** The IC50 was 31 nM.
